Laboratory results as given in PMC9910428 (Proceedings of the National Academy of Sciences of the …, 2022).
Like-named read-outs stand apart in the source and are kept apart here.

Tests used:
Sm.TRPM[D1677E]PZQ = assay: FLIPR Ca2+ reporter assay, Sm.TRPM[D1677E]PZQ mutant; type: cell-based, Schistosoma mansoni
Sm.TRPM[N1388H]PZQ = assay: FLIPR Ca2+ reporter assay, Sm.TRPM[N1388H]PZQ mutant; type: cell-based, Schistosoma mansoni
Sm.TRPM[T1518S]PZQ = assay: FLIPR Ca2+ reporter assay, Sm.TRPM[T1518S]PZQ mutant; type: cell-based, Schistosoma mansoni
Ml.TRPM[E1495D]PZQ = Ml.TRPM[E1495D]PZQ (Macrostomum lignano, UniProt A0A267GS13); type: cell-based
Ml.TRPM[E1495D]PZQ, sequence (A0A267GS13 1-1954, stated change not applied): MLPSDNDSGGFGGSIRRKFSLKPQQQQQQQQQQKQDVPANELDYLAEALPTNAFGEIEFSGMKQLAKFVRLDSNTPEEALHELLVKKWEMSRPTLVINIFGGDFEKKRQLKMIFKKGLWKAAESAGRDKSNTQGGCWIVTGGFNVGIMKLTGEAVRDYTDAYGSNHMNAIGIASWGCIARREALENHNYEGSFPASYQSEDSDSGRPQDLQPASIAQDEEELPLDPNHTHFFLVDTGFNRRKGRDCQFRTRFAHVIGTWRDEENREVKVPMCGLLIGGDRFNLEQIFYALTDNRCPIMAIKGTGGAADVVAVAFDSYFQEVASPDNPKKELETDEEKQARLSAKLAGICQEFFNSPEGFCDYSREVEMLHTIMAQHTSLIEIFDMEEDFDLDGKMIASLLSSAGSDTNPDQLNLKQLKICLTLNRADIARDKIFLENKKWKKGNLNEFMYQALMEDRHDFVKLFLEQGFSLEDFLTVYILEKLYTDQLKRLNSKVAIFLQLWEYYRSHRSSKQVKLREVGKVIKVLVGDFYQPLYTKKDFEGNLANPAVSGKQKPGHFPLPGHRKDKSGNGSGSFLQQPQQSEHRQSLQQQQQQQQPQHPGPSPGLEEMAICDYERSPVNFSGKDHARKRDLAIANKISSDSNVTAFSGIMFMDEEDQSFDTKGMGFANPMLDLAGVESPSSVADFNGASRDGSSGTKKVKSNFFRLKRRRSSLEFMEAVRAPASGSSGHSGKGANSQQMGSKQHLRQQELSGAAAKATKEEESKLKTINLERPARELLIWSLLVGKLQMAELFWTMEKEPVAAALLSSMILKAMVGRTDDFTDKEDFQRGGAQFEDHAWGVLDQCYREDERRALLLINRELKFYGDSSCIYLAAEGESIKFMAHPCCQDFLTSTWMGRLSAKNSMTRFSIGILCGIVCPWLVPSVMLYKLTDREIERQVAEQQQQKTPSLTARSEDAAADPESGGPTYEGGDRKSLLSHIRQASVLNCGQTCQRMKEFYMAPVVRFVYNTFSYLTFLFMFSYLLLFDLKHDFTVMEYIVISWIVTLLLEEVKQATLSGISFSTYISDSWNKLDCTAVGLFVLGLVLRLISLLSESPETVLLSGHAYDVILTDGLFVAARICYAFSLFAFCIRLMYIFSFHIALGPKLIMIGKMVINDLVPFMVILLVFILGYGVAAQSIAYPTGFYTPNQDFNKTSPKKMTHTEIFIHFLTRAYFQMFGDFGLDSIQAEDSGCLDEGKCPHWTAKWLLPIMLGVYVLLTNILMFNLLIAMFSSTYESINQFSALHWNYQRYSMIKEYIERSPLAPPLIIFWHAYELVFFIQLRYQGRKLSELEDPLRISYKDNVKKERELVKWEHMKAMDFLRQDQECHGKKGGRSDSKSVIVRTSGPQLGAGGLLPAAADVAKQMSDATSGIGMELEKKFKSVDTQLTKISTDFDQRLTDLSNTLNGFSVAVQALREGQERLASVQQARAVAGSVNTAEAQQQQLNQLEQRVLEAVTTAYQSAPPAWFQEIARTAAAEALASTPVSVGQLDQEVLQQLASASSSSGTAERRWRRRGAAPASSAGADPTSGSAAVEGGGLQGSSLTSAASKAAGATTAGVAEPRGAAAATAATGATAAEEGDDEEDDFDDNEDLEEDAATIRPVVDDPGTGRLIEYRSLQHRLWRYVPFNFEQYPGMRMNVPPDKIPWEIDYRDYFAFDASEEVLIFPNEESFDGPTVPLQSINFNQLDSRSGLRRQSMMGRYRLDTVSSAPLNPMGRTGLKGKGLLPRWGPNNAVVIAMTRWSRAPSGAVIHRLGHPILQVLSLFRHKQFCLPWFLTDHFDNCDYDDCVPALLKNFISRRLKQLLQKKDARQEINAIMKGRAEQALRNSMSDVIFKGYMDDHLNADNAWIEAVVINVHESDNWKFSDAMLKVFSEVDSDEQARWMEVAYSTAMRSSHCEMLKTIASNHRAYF

Sm.TRPM[D1677Y]PZQ = assay: FLIPR Ca2+ reporter assay, Sm.TRPM[D1677Y]PZQ mutant; type: cell-based, Schistosoma mansoni
Sm.TRPM[W1667A]PZQ = assay: FLIPR Ca2+ reporter assay, Sm.TRPM[W1667A]PZQ mutant; type: cell-based, Schistosoma mansoni
cyclophyllidean cestodes = conditions: cited from earlier work
[1] = tested on: larval and adult diphyllobothriids; conditions: cited from earlier work
D. japonica = conditions: read-out: EC50 for evoking bipolarity; cited from earlier work
Fh.TRPMPZQ = Fh.TRPMPZQ with S1 threonine residue; cited from earlier work

SMILES: O=C(C1CCCCC1)N1CC(=O)N2CCc3ccccc3C2C1 (racemic) [(±)-PZQ, praziquantel]
- responsiveness of mutant channel (Sm.TRPM[D1677E]PZQ): no responsiveness
- responsiveness of mutant channel (Sm.TRPM[D1677E]PZQ; listed as PZQ): ablated sensitivity
- sensitivity compared with the wild-type channel (Sm.TRPM[N1388H]PZQ): equivalent sensitivity
- sensitivity compared with the wild-type channel (Sm.TRPM[T1518S]PZQ): equivalent sensitivity
- increase of sensitivity versus wild-type Ml.TRPMPZQ (Ml.TRPM[E1495D]PZQ): ~ 2.5 fold
- EC50 (Ml.TRPM[E1495D]PZQ; Ml.TRPM[E1495D]PZQ, Ca2+): 21.1 ± 3.1 µM
- sensitivity of mutant channel compared with wild type (Sm.TRPM[D1677Y]PZQ): enhanced
- sensitivity of mutant channel compared with wild type (Sm.TRPM[W1667A]PZQ): increased sensitivity
- lowest concentration with deleterious effects in vitro (cyclophyllidean cestodes): 320 pM
- concentration required to show lethality [1]: > 320 µM
- EC50 (D. japonica): 35 ± 7 µM
- sensitivity of channel (Fh.TRPMPZQ): insensitive
